The inhibition is the percentage by which the read-out fell short of the control.

Data on one compound can be found in paper PMC9055851 (RSC Advances, 2020).

The target of this test is Aβ42 peptide (Homo sapiens, UniProt P05067). Nature of the test: ThT fluorescence assay for inhibition of Aβ42 fibrillation. In kind it is biochemical.

The structures appear in SMILES notation.

Aβ42 peptide, sequence (P05067 672-713): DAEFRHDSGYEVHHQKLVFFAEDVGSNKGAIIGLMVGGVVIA

For the compound `O=[N+]([O-])c1ccc(/N=N/c2ccc3nc(-c4ccccc4)c(I)c(-c4ccccc4)c3c2)cc1` [Compound 1d, (E)-3-Iodo-6-((4-nitrophenyl)diazenyl)-2,4-diphenylquinoline], the “% inhibition for Aβ aggregation” value (Aβ42 25 μM, compounds 25 μM, PBS, 37 °C, 24 h) was 75.2 ± 3.0%. Moreover, the inhibition at 25 µM (read-out: % inhibition for Aβ aggregation, Aβ42 25 μM, compounds 25 μM, PBS, 37 °C, 24 h) is about 75%.
